Laboratory results reported in patent US8475804B2 (priority 2009, dated 2013).
Structures can show the parent of a compound that is named as a salt. Where two headings read alike, the source gives them in different places. Residues, ends and D or L forms follow the SMILES beside them. *: point of attachment. Cbz = O=C(OCc1ccccc1)*

Tested on: Ebola virus
Assay: microbe, parasite or virus in culture
Type: cell-based, Ebolavirus (EBOV)
Conditions: for Emax: read-out: Max Effect

Compound	IC50 (Zaire ebolavirus, Vero)	Emax (Zaire ebolavirus, Vero)	Max Effect	IC50 (read-out: IC50)
CN1CCCN(C(c2ccccc2)c2ccc(Cl)cc2)CC1 (stereo not drawn) [Homochlorcyclizine dihydrochloride]	8.7 µM	50.8%		
CO[C@@H]1[C@H](O)C[C@@H](O[C@@H]2C[C@H](Oc3cc4cc5c(c(O)c4c(O)c3C)C(=O)[C@@H](O[C@H]3C[C@@H](O[C@H]4C[C@@H](O[C@H]6C[C@](C)(O)[C@@H](OC(C)=O)[C@H](C)O6)[C@H](O)[C@@H](C)O4)[C@H](O)[C@@H](C)O3)[C@H]([C@H](OC)C(=O)[C@@H](O)[C@@H](C)O)C5)O[C@H](C)[C@@H]2OC(C)=O)O[C@@H]1C [Chromomycin A3]			0.629	0.4 µM
COC(=O)Nc1nc2ccc(C(=O)c3ccccc3)cc2[nH]1 [Mebendazole]	0.7 µM	50%		
CC(C)(C)c1ccc(C(O)CCCN2CCC(C(O)(c3ccccc3)c3ccccc3)CC2)cc1 (stereo not drawn) [Terfenadine]	6.1 µM	91.4%		
NCCNS(=O)(=O)c1ccc(Cl)c2ccncc12 [CKI7]			0.565	10.7 µM
CCCCCCCCCCCC[N+](C)(C)CCOc1ccccc1 [Domiphen Bromide]	7.5 µM	71.5%		
N[C@H]1CC[C@@H](c2ccc(Cl)c(Cl)c2)c2ccccc21 [(1S,4S)-Desmethyl Sertraline, Hydrochloride]	1.3 µM	68.8%		
C[C@@H]1C[C@@H]([C@H](O)CC2CC(=O)NC(=O)C2)C(=O)[C@@H](C)C1 [Cycloheximide]	< 1.6 µM	90%		
COc1ccc(C[C@H]2NC[C@H](O)[C@H]2OC(C)=O)cc1 [Anisomycin]			0.900	< 1.6 µM
CC/C(=C(/CC)c1ccc(O)cc1)c1ccc(O)cc1 [Diethylstilbestrol]		43.6%		
[O-][n+]1ccccc1[S-].[O-][n+]1ccccc1[S-].[Zn+2] [Pyrithione Zinc]			0.767	
Beta Escin			0.878	
CC1=C(/C=C/C(C)=C/C=C/C(C)=C/C(=O)Nc2ccc(O)cc2)C(C)(C)CCC1 [Fenretinide]		42.6%		
CC(=O)OCC1=C(C(=O)O)N2C(=O)[C@@H](NC(=O)CSc3ccncc3)[C@H]2SC1 [Cephapirin Sodium]	9.8 µM	66.2%		
CC(C)C(=O)OCC(=O)[C@@]12O[C@H](C3CCCCC3)O[C@@H]1C[C@H]1[C@@H]3CCC4=CC(=O)C=C[C@]4(C)[C@H]3[C@@H](O)C[C@@]12C [Ciclesonide]	16 µM	51.2%		
C1CCC(C(CC2CCCCN2)C2CCCCC2)CC1 (stereo not drawn) [Perhexiline Maleate]	4.1 µM	89%		
O=C([O-])O.[Na+] [Sodium Bicarbonate]			0.389	
COCc1c(C(C)C)nc(C(C)C)c(/C=C/[C@@H](O)C[C@@H](O)CC(=O)O)c1-c1ccc(F)cc1 [Cerivastatin Sodium]	0.1 µM	44.3%		
CCCCCCCCOC(=O)c1cc(O)c(O)c(O)c1 [Octyl Gallate]		43.9%		
COc1ccc(OC)c2c(=S)c3ccccc3[nH]c12 [NSC 625987]			0.418	
CC(=O)OC[C@H]1O[C@@H]([S-])[C@H](OC(C)=O)[C@@H](OC(C)=O)[C@@H]1OC(C)=O.CCP(CC)CC.[Au+] [Auranofin]				< 1 µM

Compound	IC50 (Zaire ebolavirus, Vero)	Emax (Zaire ebolavirus, Vero)	Max Effect	IC50 (read-out: IC50)
C[C@H]1CCC/C=C/[C@@H]2C[C@H](O)C[C@H]2[C@H](O)/C=C/C(=O)O1 [Brefeldin A]			0.900	< 1.6 µM
O=C(OC[C@H]1O[C@@H](OC(=O)c2cc(O)c(O)c(OC(=O)c3cc(O)c(O)c(O)c3)c2)[C@H](OC(=O)c2cc(O)c(O)c(OC(=O)c3cc(O)c(O)c(O)c3)c2)[C@@H](OC(=O)c2cc(O)c(O)c(OC(=O)c3cc(O)c(O)c(O)c3)c2)[C@@H]1OC(=O)c1cc(O)c(O)c(OC(=O)c2cc(O)c(O)c(O)c2)c1)c1cc(O)c(O)c(OC(=O)c2cc(O)c(O)c(O)c2)c1 [Tannic Acid]		54.3%		
O=C1Nc2ccc3ncsc3c2/C1=C/c1cnc[nH]1 [PKR inhibitor]			0.434	
COc1ccc2cc1Oc1ccc(cc1)C[C@H]1c3c(cc4c(c3Oc3cc5c(cc3OC)CCN(C)[C@@H]5C2)OCO4)CCN1C [Cepharanthine]	5.6 µM	65.2%		
C#C[C@]1(O)CC[C@H]2[C@@H]3[C@H](C)CC4=C(CCC(=O)C4)[C@H]3CC[C@@]21C [Tibolone]	1.2 µM	112%		
C#C[C@]1(O)CC[C@H]2[C@@H]3CCc4cc(OC5CCCC5)ccc4[C@H]3CC[C@@]21C [Quinestrol]	7.2 µM	54.9%		
CC(C)C[C@@H](C=O)NC(=O)[C@H](CC(C)C)NC(=O)[C@H](CC(C)C)NC(=O)OCc1ccccc1 [MG-132] (Cbz-Leu-Leu-Leu-aldehyde)	< 0.6 µM	90%		
CC1(C)C[C@@H]1C(=O)N/C(=C\CCCCSC[C@H](N)C(=O)O)C(=O)O [Cilastatin Sodium]	8.8 µM	91.2%		
C=C(NC(=O)C(=C)NC(=O)c1csc(C2=N[C@@H]3c4csc(n4)[C@H]4NC(=O)c5csc(n5)[C@H]([C@](C)(O)[C@@H](C)O)NC(=O)[C@H]5CSC(=N5)/C(=C/C)NC(=O)[C@H]([C@@H](C)O)NC(=O)c5csc(n5)[C@]3(CC2)NC(=O)[C@H](C)NC(=O)C(=C)NC(=O)[C@H](C)NC(=O)[C@H]([C@@H](C)CC)N[C@@H]2C=Cc3c([C@H](C)O)cc(nc3[C@H]2O)C(=O)O[C@@H]4C)n1)C(N)=O [Thiostrepton]		45.4%		
Nc1ncnc2c1c(I)cn2[C@@H]1O[C@H](CO)[C@@H](O)[C@H]1O [5-Iodotubercidin]			0.369	
O=C(O)Cc1cc(I)c(Oc2ccc(O)c(I)c2)c(I)c1 [Tiratricol]		47.8%		
Clc1ccc(C(Cn2ccnc2)OCc2ccsc2Cl)c(Cl)c1 (stereo not drawn) [Tioconazole]	8.5 µM	72.9%		
Nc1ccc(C(=O)N[C@@H](CCC(=O)O)C(=O)O)cc1 [N-(4-Aminobenzoyl)-L-glutamic acid]	9.7 µM	85.5%		
c1ccc2c(c1)[I+]c1ccccc1-2 [Diphenyleneiodonium chloride]	< 1.6 µM	80%		
CCCOc1ccc2nc(NC(=O)OC)[nH]c2c1 [Oxibendazole]		47.2%		
COC(=O)[C@H]1[C@H]2C[C@@H]3c4[nH]c5cc(OC)ccc5c4CCN3C[C@H]2C[C@@H](OC(=O)/C=C/c2cc(OC)c(OC)c(OC)c2)[C@@H]1OC [Rescinnamine]		51.2%		
Nc1[nH]c(=O)ncc1F [Flucytosine]	4.4 µM	79.3%		
Chondroitin Sulfate			0.535	11.4 µM
N=C(N)c1ccc(OCCCCCOc2ccc(C(=N)N)cc2)cc1 [Pentamidine]	10.5 µM	42.2%		
Fc1ccc(C(OCCN2CCN(CCCc3ccccc3)CC2)c2ccc(F)cc2)cc1 [Vanoxerine]	5.8 µM	56.4%		
CCCCCC(=O)O[C@]1(C(C)=O)CC[C@H]2[C@@H]3CCC4=CC(=O)CC[C@]4(C)[C@H]3CC[C@@]21C [Hydroxyprogesterone Caproate]	3.7 µM	71.9%		

Compound	IC50 (Zaire ebolavirus, Vero)	Emax (Zaire ebolavirus, Vero)	Max Effect	IC50 (read-out: IC50)
CN(C)CCCN1c2ccccc2Sc2ccc(C(F)(F)F)cc21 [Triflupromazine Hydrochloride]	12.1 µM	54.1%		
C/C1=C/C(=O)O[C@@H]2C[C@@H](CC[C@H](C)/C=C\CC1)O[C@@](O)([C@@H]1CSC(=O)N1)C2 [Latrunculin B]			0.621	0.4 µM
NC(=O)C[C@H](N)C(=O)O [L-Asparagine]	7.2 µM	77.1%		
CNc1ccc2oc(C[C@H]3O[C@@]4(CC[C@H]3C)O[C@H]([C@H](C)C(=O)c3ccc[nH]3)[C@H](C)C[C@H]4C)nc2c1C(=O)O [Calcimycin A23187]			0.789	1.1 µM
CN(C)C(=O)C(CCN1CCC(O)(c2ccc(Cl)cc2)CC1)(c1ccccc1)c1ccccc1 [Loperamide]			0.716	
CC(C)C[C@H]1C(=O)N2CCC[C@H]2[C@]2(O)O[C@](NC(=O)[C@@H]3C=C4c5cccc6[nH]c(Br)c(c56)C[C@H]4N(C)C3)(C(C)C)C(=O)N12 [Bromocriptine Mesylate]		42.2%		
Oc1c(Cl)cc(Cl)c(Cl)c1Cc1c(O)c(Cl)cc(Cl)c1Cl [Hexachlorophene]	3.2 µM	71.3%		
Tunicamycin			0.800	< 0.28 µM
CCOC(=O)C1=C(COCCN)NC(C)=C(C(=O)OC)C1c1ccccc1Cl (stereo not drawn) [Amlodipine Besylate]	13.2 µM	52.8%		
CN(C)CCOC(C)(c1ccccc1)c1ccccn1 (stereo not drawn) [Doxylamine Succinate]	5.2 µM	73.1%		
COc1c(C)c2c(c(O)c1C/C=C(\C)CCC(=O)O)C(=O)OC2 [Mycophenolic Acid]	< 1 µM	80%		
CN1CCCC(n2nc(Cc3ccc(Cl)cc3)c3ccccc3c2=O)CC1 (stereo not drawn) [Azelastine]	122 µM	64.8%		
CCOc1ccc(/C=C2\NCCc3cc(OCC)c(OCC)cc32)cc1OCC [Drotaverine Hydrochloride]		36.7%		
C#C[C@]1(O)CC[C@H]2[C@@H]3CCC4=Cc5oncc5C[C@]4(C)[C@H]3CC[C@@]21C [Danazol]	12.9 µM	54.6%		
Oc1c2ccccc2c2c3c(cccc13)N=N2 [SP 600125]		36.5%		
CN1C[C@H](CNC(=O)OCc2ccccc2)C[C@@H]2c3cccc4c3c(cn4C)C[C@H]21 [Metergoline]	6.1 µM	57.7%		
CC(C(=O)[O-])c1cccc(Oc2ccccc2)c1.CC(C(=O)[O-])c1cccc(Oc2ccccc2)c1.[Ca+2] (stereo not drawn) [Fenoprofen Calcium]			0.454	
C/C=C(/C)C(=O)O[C@H]1C(C)=C2[C@H]([C@@H]1OC(=O)CCCCCCC)[C@@](C)(OC(C)=O)C[C@H](OC(=O)CCC)[C@@]1(O)[C@H]2OC(=O)[C@@]1(C)O [Thapsigargin]	< 0.3 µM	70%		
CSc1nc2cc(Cl)c(Oc3cccc(Cl)c3Cl)cc2[nH]1 [Triclabendazole]	9.2 µM	55.2%		
CN1CCN(C(c2ccccc2)c2ccc(Cl)cc2)CC1 (stereo not drawn) [Chlorcyclizine Hydrochloride]		45.6%		
CC(=O)N[C@@H](CC(C)C)C(=O)N[C@@H](CC(C)C)C(=O)N[C@H](C=O)CCCNC(=N)N [Leupeptin HCl]	3.2 µM	86.5%		
